No end group written: not given here.
Tests used:
Type in all cases: cell-based
3T3-L1 cells = assay: Oil red staining of lipid vacuoles of adipocytes; conditions: 0.5% solution at 50 ppm
Method: Undifferentiated 3T3-L1 preadipocyte cell lines were seeded in 8-well Lab-Tek slides (for oil red staining), in 12-well plates (for ATP measurement), in 24-well plates (for cAMP measurement) and in 6-well plates (for glycerol measurement) as well as with DMEM culture medium (4.5 g/l) containing antibiotics. These 3T3-L1 preadipocytes were capable of entering, under certain conditions, the terminal differentiation phase.
Once the 3T3-L1 cells had reached 100% confluence, they were differentiated by putting them into culture in various mediums, over a period of 6 to 8 days.
During the first 2 days, cells were cultured in the presence of IBMX, dexamethasone, and insulin diluted in DMEM culture medium at 4.5 g/l. Then, they were cultured for two days only in the presence of insulin diluted in DMEM culture medium at 4.5 g/l and, finally, the cells were cultivated for 2 to 3 days in culture medium containing exclusively DMEM 4.5 g/l.
Cell differentiation in mature adipocytes was visualized by the appearance of lipid droplets in the cytoplasm of the cells.
The principle of this evaluative test on the effect of peptides rests on a microscopic observation of the number and size of lipid vacuoles of adipocytes after staining. Adipocytes were incubated or not in the presence of the substance to be tested.
3T3-L1 cells, seeded in 8-well Lab-Teks, were treated with the peptide of SEQ ID NO:1, i.e. of sequence Pro-Leu-Asp-Thr-Ala-Lys-Val-Arg-Leu-Gln, representative of the peptide family according to the invention, placed in a 0.5% solution at 50 ppm. The active ingredient was added at various stages of culture: • At the start of the incubation and until the end of adipocyte differentiation (72 hours of culture until 100% confluence, then for the 6 days of differentiation); • 6 hours after incubation and until the end of cell differentiation (66 hours of culture until 100% confluence, then for the 6 days of differentiation); • Once cells differentiated in the adipocytes, they were treated with the active ingredient for 6, 24, or 48 hours. […]

[1] = test system: differentiated 3T3-L1 cells; assay: Measurement of intracellular cAMP; conditions: 0.5% solution at 50 ppm; 15 minutes, 30 minutes or 1 hour; compared to cells treated with isoproterenol 1 μM
Method: The objective of this test was to measure the variation of the intracellular concentration of cAMP in adipocytes, in order to deduce a possible activation of the phenomenon of lipolysis.
The test was carried out on differentiated 3T3-L1 cells. These adipocytes were treated with the peptide of (SEQ ID NO: 1), i.e. of sequence Pro-Leu-Asp-Thr-Ala-Lys-Val-Arg-Leu-Gln, representative of the peptide family according to the invention, placed in a 0.5% solution at 50 ppm, for periods of 15 minutes, 30 minutes, or 1 hour. In parallel, differentiated 3T3-L1 cells were also treated with isoproterenol (an agent that induces lipolysis), at 1 μM, thus forming a positive control.
After the various incubation periods, in the presence of the active ingredient being tested or in the presence of isoproterenol, the quantity of cAMP contained in adipocytes was measured using the “AMP Biotrak® EIA System” kit purchased from Amersham Biosciences as well as by a test principle, colorimetric ELISA. The kit made cell lysis possible through a solution allowing for the hydrolysis of cellular membranes and the release of intracellular cAMP in the medium. Followed by the binding of antibodies specific to intracellular cAMP extracted from samples, which is placed in competition with cAMP that has been coupled to the enzyme, peroxidase.

[2] = test system: differentiated 3T3-L1 cells; assay: Measurement of intracellular ATP; conditions: 0.5% solution at 50 ppm; period up to 96 hours
Method: The aim of this study was to determine the influence of the peptide according to the invention on the quantity of intracellular ATP. The study was carried out using an “ATP Bioluminescence Assay HS II” kit. Differentiated 3T3-L1 cells were treated with a 0.5% solution at 50 ppm, containing the peptide of SEQ ID NO: 1, representative of the peptide family according to the invention, for a period up to 96 hours. At the end of the incubation time, the wells were emptied of their medium and were rinsed with 2 ml of cold PBS before adding 250 μl of lysis buffer, provided by the kit. The cells were then scraped, and then collected separately in 14 ml tubes. Each well was rinsed with 2×500 μl of cold PBS and everything was again collected in the respective tubes. Each tube was then placed in the polytron for 10 seconds at 18000 rpm. From these samples, a dilution of 1/12000, using cold PBS, was carried out before each reading. ATP quantity assessment was performed on these samples: 50 μl of this dilution were placed in a luma-basin and 50 μl of […] were added. The reading of luminescence started after 10 seconds. The values were standardized compared to the quantity of proteins for each sample. Measurements were taken using a Biocounter M2010A LUMAC®/3M.

[3] = test system: differentiated 3T3-L1 cells; assay: Measurement of glycerol released by adipocytes; conditions: active ingredient at 0.5% (solution at 50 ppm); 1 h 30, 3 h, 5 h, 7 h and 24 h; versus control wells
Method: The purpose of this study was to determine the influence of the peptide according to the invention on glycerol release by adipocytes, glycerol being the result of lipolysis.
Differentiated 3T3-L1 cells were treated with a 0.5% solution at 50 ppm, containing the peptide of SEQ ID NO:1, representative of the peptide family according to the invention, for periods of 1 h 30, 3 h, 5 h, 7 h and 24 h.
The concentration of glycerol was determined using a series of enzymatic reactions leading to the formation of NADH of which the produced quantity was evaluated by spectrophometric readings at 340 nm, the formation of NADH being proportional to the quantity of glycerol released in the culture medium. An internal control of 1 mM glycerol was also used. The values were standardized in comparison to the quantity of proteins for each sample.

[4] = added at the start of incubation or 6 hours after incubation until end of differentiation, compared with control cells

PLDTAKVRLQ [SEQ ID NO:1, peptide fragment from the UCP family]
cell morphology (3T3-L1 cells; [4]): less round morphology
content of intra-adipocyte lipid vesicles (3T3-L1 cells; [4]): clearly decreased content of intra-adipocyte lipid vesicles
reduction of intra-adipocyte lipid vesicles in mature adipocytes (3T3-L1 cells; applied once differentiation was completed, for 6, 24 or 48 hours): no reduction was observed
intracellular quantity of cAMP [1]: no increase
amount of intracellular ATP [2]: lack of increase
glycerol release by differentiated cells [3]: identical

Source: patent US8012938B2, “Dermatological and/or cosmetic composition containing polypeptides” (ISP Investments Inc., priority 2004, dated 2011)
